Results taken from paper PMC12186255, “Discovery and Characterization of Small Molecule Inhibitors Targeting Exonuclease 1 for Homologous Recombination-Deficient Cancer Therapy” (ACS Chemical Biology, 2025).

Experiments:
[1] = target: T1, FEN1 (Homo sapiens, UniProt P39748); assay: Analogous FRET-based counter screen with purified FEN1; format: biochemical; conditions: FRET-based assay, maximum inhibitor concentration 100 μM
T1 construct: made in house
Experimental: Data were normalized by subtracting the relative fluorescence unit (RFU) of the blank sample from that of each EXO1-containing reaction. The relative activity of individual compounds was subsequently calculated by setting the corrected RFU of EXO1 with DMSO as 100% and comparing the corrected RFU for each condition to the DMSO value. Each assay was performed by sequentially adding experimental compounds, the EXO1 enzyme, and the DNA substrate to minimize starting differences. […] Following IC50 screening, an analogous FRET-based assay was performed using purified FEN1 to assess the EXO1 specificity of each compound.
For subsequent hit confirmation, 84 compounds from the primary screen were picked from our internal stock and subjected to a dose-dependent response assay starting at 100 μM with 3-fold serial dilution. To analyze the data from the dose-dependent response assay, IC50 values for each hit were calculated through nonlinear regression analysis using GraphPad Prism 10 (GraphPad Software, Inc.). […] Subsequently, a counter screen was performed to eliminate potential false-positive hits. To accomplish this, we established an analogous FRET assay using the purified FEN1 enzyme in place of EXO1.

[2] = target: T2, EXO1 (Homo sapiens, UniProt Q9UQ84); assay: Thermal shift assay; format: binding; conditions: maximum shift in Tm of EXO1 vs DMSO, increasing inhibitor concentrations
T2 construct: made in house
T2 sequence (Q9UQ84 1-846): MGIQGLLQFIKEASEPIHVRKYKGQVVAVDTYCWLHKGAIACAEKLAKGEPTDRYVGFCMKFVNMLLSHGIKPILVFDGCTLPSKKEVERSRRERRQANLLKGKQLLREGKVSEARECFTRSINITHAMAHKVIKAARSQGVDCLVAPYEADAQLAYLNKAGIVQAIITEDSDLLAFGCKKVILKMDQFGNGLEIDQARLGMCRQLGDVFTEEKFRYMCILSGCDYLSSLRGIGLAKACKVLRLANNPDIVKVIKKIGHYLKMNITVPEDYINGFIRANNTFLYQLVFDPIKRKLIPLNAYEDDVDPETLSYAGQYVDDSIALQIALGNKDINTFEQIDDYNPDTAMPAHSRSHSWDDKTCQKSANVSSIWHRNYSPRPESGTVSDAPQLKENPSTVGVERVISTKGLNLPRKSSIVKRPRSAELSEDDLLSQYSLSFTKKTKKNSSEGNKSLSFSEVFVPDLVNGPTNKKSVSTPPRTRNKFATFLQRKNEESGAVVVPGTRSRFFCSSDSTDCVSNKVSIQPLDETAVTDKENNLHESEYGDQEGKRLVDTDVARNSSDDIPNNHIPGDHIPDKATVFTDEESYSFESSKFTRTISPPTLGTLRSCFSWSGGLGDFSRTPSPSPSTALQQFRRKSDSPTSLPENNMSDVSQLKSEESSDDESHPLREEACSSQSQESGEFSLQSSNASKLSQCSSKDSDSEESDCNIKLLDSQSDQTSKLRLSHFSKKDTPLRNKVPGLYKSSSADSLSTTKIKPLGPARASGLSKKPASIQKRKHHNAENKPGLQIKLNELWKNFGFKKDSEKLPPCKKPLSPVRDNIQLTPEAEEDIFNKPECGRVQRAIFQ
Experimental: To assess for changes in the thermal stability of EXO1 protein in response to treatment with candidate small molecule inhibitors or DMSO (vehicle control), the thermal shift assay (Applied Biosystems Protein Thermal Shift Dye Kit, Cat. #4461146) was utilized. The protein melt reaction mix consisted of freshly prepared 10× thermal shift dye, purified EXO1 enzyme (1 μg/uL), thermal shift buffer, DMSO or inhibitors, and sterilized Milli-Q water. A drug-free supermix was premade and dispensed in 96-well PCR plates followed by the addition of DMSO or inhibitors with increasing concentration. The reaction plate was heated from 10 to 98 °C at a rate of 0.5° per 10 s cycle, and the fluorescence intensity of individual wells was measured at 490/530 nm using a BioRad CFX96 Touch Real-Time PCR System. The fluorescence measurements of three technical replicates per treatment condition were then averaged to calculate melting temperature shift (ΔT m) as a readout for compound binding affinity.

[3] = tested on: ACHN; assay: Cell line drug profiling, CellTiter Glo; format: cell-based; conditions: Homo sapiens, Kidney, 72 h
Experimental: (§1) We tested the cytotoxicity of representative compounds from the seven EXO1i scaffolds against a subset of the NCI-60 cell line panel along with three additional pancreatic cell lines (FG, AsPC1, and CaPan2). In general, cells were seeded in 384-well tissue culture-treated plates overnight and treated with various concentrations of each hit compound (a serial 3-fold dilution from 50 μM for all tested hits). Each concentration was performed in duplicate. Cell viability was then measured by CellTiter Glo (Promega) after 72 h of treatment.

[4] = tested on: AsPC1; assay: Cell line drug profiling, CellTiter Glo; format: cell-based; conditions: Homo sapiens; AsPC1, Pancreatic, 72 h
Experimental: as §1

[5] = tested on: BT549; assay: Cell line drug profiling, CellTiter Glo; format: cell-based; conditions: Homo sapiens, BT-549; BT549, Breast, 72 h
Experimental: as §1

[6] = tested on: CCRF-CEM; assay: Cell line drug profiling, CellTiter Glo; format: cell-based; conditions: Homo sapiens, Leukemia, 72 h
Experimental: as §1

[7] = tested on: CaPan2; assay: Cell line drug profiling, CellTiter Glo; format: cell-based; conditions: Homo sapiens, Capan-2; CaPan2, Pancreatic, 72 h
Experimental: as §1

[8] = tested on: DU145 (B3); assay: Cell line drug profiling, CellTiter Glo; format: cell-based; conditions: Homo sapiens, DU-145, Prostate, 72 h
Experimental: as §1

[9] = tested on: DU145; assay: Cell line drug profiling, CellTiter Glo; format: cell-based; conditions: Homo sapiens, DU-145; DU145, Prostate, 72 h
Experimental: as §1

[10] = tested on: FG; assay: Cell line drug profiling, CellTiter Glo; format: cell-based; conditions: Homo sapiens, Pancreatic, 72 h
Experimental: as §1

[11] = tested on: H23; assay: Cell line drug profiling, CellTiter Glo; format: cell-based; conditions: Homo sapiens, NCI-H23; H23, Lung, 72 h
Experimental: as §1

[12] = tested on: HL-60(TB); assay: Cell line drug profiling, CellTiter Glo; format: cell-based; conditions: Homo sapiens, Leukemia, 72 h
Experimental: as §1

[13] = tested on: HS 578T; assay: Cell line drug profiling, CellTiter Glo; format: cell-based; conditions: Homo sapiens, Breast, 72 h
Experimental: as §1

[14] = tested on: IGR-OV1; assay: Cell line drug profiling, CellTiter Glo; format: cell-based; conditions: Homo sapiens, IGROV-1; IGR-OV1, Ovarian, 72 h
Experimental: as §1

[15] = tested on: MCF7 (B3); assay: Cell line drug profiling, CellTiter Glo; format: cell-based; conditions: Homo sapiens, Breast, 72 h
Experimental: as §1

[16] = tested on: MCF7; assay: Cell line drug profiling, CellTiter Glo; format: cell-based; conditions: Homo sapiens; MCF7, Breast, 72 h
Experimental: as §1

[17] = tested on: MDA-MB-231; assay: Cell line drug profiling, CellTiter Glo; format: cell-based; conditions: Homo sapiens; MDA-MB-231, Breast, 72 h
Experimental: as §1

[18] = tested on: NCI/ADR-RES; assay: Cell line drug profiling, CellTiter Glo; format: cell-based; conditions: Homo sapiens, Ovarian, 72 h
Experimental: as §1

[19] = tested on: OVCAR-3; assay: Cell line drug profiling, CellTiter Glo; format: cell-based; conditions: Homo sapiens; OVCAR-3, Ovarian, 72 h
Experimental: as §1

[20] = tested on: OVCAR-4; assay: Cell line drug profiling, CellTiter Glo; format: cell-based; conditions: Homo sapiens; OVCAR-4, Ovarian, 72 h
Experimental: as §1

[21] = tested on: OVCAR-5; assay: Cell line drug profiling, CellTiter Glo; format: cell-based; conditions: Homo sapiens; OVCAR-5, Ovarian, 72 h
Experimental: as §1

[22] = tested on: OVCAR-8; assay: Cell line drug profiling, CellTiter Glo; format: cell-based; conditions: Homo sapiens; OVCAR-8, Ovarian, 72 h
Experimental: as §1

[23] = tested on: PC3; assay: Cell line drug profiling, CellTiter Glo; format: cell-based; conditions: Homo sapiens, PC-3; PC3, Prostate, 72 h
Experimental: as §1

[24] = tested on: SF-268; assay: Cell line drug profiling, CellTiter Glo; format: cell-based; conditions: Homo sapiens; SF-268, Central Nervous System, 72 h
Experimental: as §1

[25] = tested on: SK-MEL-28; assay: Cell line drug profiling, CellTiter Glo; format: cell-based; conditions: Homo sapiens; SK-MEL-28, Melanoma, 72 h
Experimental: as §1

[26] = tested on: SKOV-3; assay: Cell line drug profiling, CellTiter Glo; format: cell-based; conditions: Homo sapiens, SK-OV-3; SKOV-3, Ovarian, 72 h
Experimental: as §1

[27] = tested on: SNB-19; assay: Cell line drug profiling, CellTiter Glo; format: cell-based; conditions: Homo sapiens; SNB-19, Central Nervous System, 72 h
Experimental: as §1

[28] = tested on: T-47D; assay: Cell line drug profiling, CellTiter Glo; format: cell-based; conditions: Homo sapiens, T47D, Breast, 72 h
Experimental: as §1

[29] = tested on: U251; assay: Cell line drug profiling, CellTiter Glo; format: cell-based; conditions: Homo sapiens, U-251; U251, Central Nervous System, 72 h
Experimental: as §1

[30] = tested on: UACC-257; assay: Cell line drug profiling, CellTiter Glo; format: cell-based; conditions: Homo sapiens; UACC-257, Melanoma, 72 h
Experimental: as §1

[31] = tested on: UO-31; assay: Cell line drug profiling, CellTiter Glo; format: cell-based; conditions: Homo sapiens; UO-31, Kidney, 72 h
Experimental: as §1

[32] = tested on: MDA-MB-468; assay: Cell line drug profiling, CellTiter Glo; format: cell-based, human
Experimental: as §1

[33] = tested on: SF-295; assay: Cell line drug profiling, CellTiter Glo; format: cell-based, human
Experimental: as §1

[34] = target: T2, EXO1; assay: FRET-based EXO1 exonuclease activity assay, dose-response; format: biochemical; conditions: nick substrate, 30 min, 37 °C
Excerpt: We developed a cell-free in vitro assay to detect EXO1 exonuclease activity based on FRET quenching. […] A ZEN quencher and IowaBlackFQ quencher were attached to the downstream oligo internally and at the 3' end, respectively, to suppress FAM signal. Two quenchers were used to provide better quenching effects than did a single quencher, as recommended by the manufacturer (IDT). The sequence of the nick substrate was as follows: up-primer: [NT]; template: [NT]; and probe: […] . When EXO1 cleaved the nick substrate, the FAM-labeled nucleotide was untethered from the substrate and yielded a bright green fluorescence. […] Fluorescent signals were measured after a 30 min incubation. […] Data were normalized by subtracting the relative fluorescence unit (RFU) of the blank sample from that of each EXO1-containing reaction. The relative activity of individual compounds was subsequently calculated by setting the corrected RFU of EXO1 with DMSO as 100% and comparing the corrected RFU for each condition to the DMSO value. Each assay was performed by sequentially adding experimental compounds, the EXO1 enzyme, and the DNA substrate to minimize starting differences.

[35] = tested on: MDA-MB-231 cells; assay: Gel-based phospho-RPA end resection assay; format: cell-based, human; conditions: inhibitor overnight then 2 μM CPT 2 h, C5 10 μM
Experimental: The levels of RPA32 and phosphorylated RPA32 (S33) were analyzed by Western blotting using antibodies against RPA32 and phosphorylated RPA32 (S33). The total level of tubulin was used as a control. (b) Ratio of P-RPA:RPA levels calculated from panel a. […] U2OS cells carrying a GFP reporter for HR were infected with adenovirus expressing the I-SceI restriction enzyme. […] U2OS cells carrying a GFP reporter for HR were infected with adenovirus expressing the I-SceI restriction enzyme. […] For panels c and d, after 48 h, the cells were harvested, and the GFP-positive cells were analyzed by flow cytometry. Values are the mean ± S.D. of three independent experiments.
The treated cells were then lysed in the SDS-PAGE sample buffer, and the lysate was separated by SDS-PAGE prior to immobilization on a nitrocellulose membrane and Western blotting. Antibodies against unphosphorylated RPA, S33-P-RPA2, and tubulin were subsequently assayed according to the manufacturer’s recommendations. The ratio of P-RPA/RPA levels were quantified via ImageJ.

T1 sequence (P39748 whole entry): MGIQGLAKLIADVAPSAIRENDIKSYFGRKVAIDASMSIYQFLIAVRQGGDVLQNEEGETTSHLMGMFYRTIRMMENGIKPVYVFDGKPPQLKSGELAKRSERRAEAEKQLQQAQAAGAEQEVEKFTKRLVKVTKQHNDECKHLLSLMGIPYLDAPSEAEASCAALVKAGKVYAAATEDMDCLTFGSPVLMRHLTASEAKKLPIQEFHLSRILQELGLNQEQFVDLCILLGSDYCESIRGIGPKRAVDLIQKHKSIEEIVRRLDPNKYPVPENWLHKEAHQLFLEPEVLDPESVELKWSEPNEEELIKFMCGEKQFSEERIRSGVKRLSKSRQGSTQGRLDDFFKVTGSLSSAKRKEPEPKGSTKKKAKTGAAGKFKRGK

SMILES: Cc1ccccc1C(=O)Nc1ccc(N2CCN(c3ccccc3Cl)CC2)c(C(=O)O)c1 [G889]
- IC50 [1]: > 100 µM
- ΔT m [2]: ~1 °C

SMILES: O=C(Nc1ccc(N2CCC(Cc3ccccc3)CC2)cc1C(=O)O)c1ccccc1Cl [F685]
- IC50 [1]: > 100 µM
- IC50 [3]: 19.9 µM
- IC50 [4]: 43.3 µM
- IC50 [5]: 17.9 µM
- IC50 [6]: 14.8 µM
- IC50 [7]: 44.7 µM
- IC50 [8]: 14.1 µM
- IC50 [9]: 12.6 µM
- IC50 [10]: > 50 µM
- IC50 [11]: 23.5 µM
- IC50 [12]: 17.5 µM
- IC50 [13]: 22.9 µM
- IC50 [14]: 18.1 µM
- IC50 [15]: 37.3 µM
- IC50 [16]: 43.5 µM
- IC50 [17]: 31.6 µM
- IC50 [18]: 17.7 µM
- IC50 [19]: 5.73 µM
- IC50 [20]: 21.4 µM
- IC50 [21]: 19.4 µM
- IC50 [22]: 18.8 µM
- IC50 [23]: 19.7 µM
- IC50 [24]: 49.3 µM
- IC50 [25]: 47.1 µM
- IC50 [26]: 24.4 µM
- IC50 [27]: 16.6 µM
- IC50 [28]: 16.9 µM
- IC50 [29]: 14.2 µM
- IC50 [30]: 21.5 µM
- IC50 [31]: 8.27 µM
- IC50 ([32]; Homo sapiens, MDA-MB-468, 72 h): 46.4 µM
- IC50 ([33]; Homo sapiens, SF-295, 72 h): 28.2 µM

SMILES: Cc1c(Cl)cccc1NCc1cc(=O)n2nc(-c3ccc(C(C)(C)C)cc3)nc2[nH]1 [D351]
- IC50 [34]: 8 µM
- IC50 [1]: > 100 µM

SMILES: O=C(O)c1c[nH]c2c([N+](=O)[O-])cccc2c1=O [C5, reference compound]
- CPT-induced P-RPA levels (DNA end resection) [35]: significant reduction

SMILES: O=S(=O)(Nc1nc2n(n1)C(c1ccccc1)C=C(c1ccc(Cl)cc1)N2)c1ccc(Cl)cc1 (stereo not shown) [D413]
- IC50 [1]: > 100 µM

SMILES: O=S(=O)(Nc1nc2n(n1)C(c1ccc(F)cc1)C=C(c1ccccc1)N2)c1ccc(Cl)cc1 (stereo not shown) [D413-0213]
- IC50 ([32]; MDA-MB-468, Breast, 72 h): 20 µM
- IC50 ([33]; SF-295, Central Nervous System, 72 h): 40 µM
